Measurements: patent publication US11690810B2, “Combination treatment of bacterial infection” (The Chinese University of Hong Kong, priority 2018, dated 2023)

Experiments:
Test in all cases: MIC and checkerboard (FIC) assay
CA-MRSA strain ST30 = format: cell-based, Staphylococcus aureus
[1] = test system: clinical fusidic acid resistant MRSA strain 82356; format: cell-based, Staphylococcus aureus; details: for FIC / MIC combine: 82356
[2] = test system: clinical fusidic acid resistant MRSA strain 73621; format: cell-based, Staphylococcus aureus; details: for FIC / MIC combine: 73621
[3] = test system: clinical fusidic acid resistant MRSA strain 96591; format: cell-based, Staphylococcus aureus; details: for FIC / MIC combine: 96591
[4] = test system: S. aureus ATCC25923 (methicillin sensitive); details: Staphylococcus aureus
CA MRSA W44 = test system: CA MRSA W44
CA MRSA W45 = test system: CA MRSA W45
CA MRSA W46 = test system: CA MRSA W46
CA MRSA W47 = test system: CA MRSA W47
CA MRSA W48 = test system: CA MRSA W48
CA MRSA W103 = test system: CA MRSA W103
CA MRSA W106 = test system: CA MRSA W106
CA MRSA W113 = test system: CA MRSA W113
HA MRSA W231 = test system: HA MRSA W231
HA MRSA W233 = test system: HA MRSA W233
HA MRSA W235 = test system: HA MRSA W235
HA MRSA W238 = test system: HA MRSA W238
HA MRSA W239 = test system: HA MRSA W239
HA MRSA W240 = test system: HA MRSA W240
[5] = Staphylococcus aureus, MRSA, read-out: MIC alone

O=C(O[C@@H]1Cc2c(O)cc(O)cc2O[C@@H]1c1ccc(O)c(O)c1)c1cc(O)c(O)c(O)c1 [ECG, epicatechin gallate]
FIC (CA-MRSA strain ST30; ST30, ECG with Kur): 0.0004 | MIC combine (CA-MRSA strain ST30; ST30, ECG with Kur): 0.25 µg/mL | FIC (CA-MRSA strain ST30; ST30, ECG+Kur+Van): 0.0004 | MIC combine (CA-MRSA strain ST30; ST30, ECG+Kur+Van): 0.25 µg/mL | MIC alone (CA-MRSA strain ST30; ST30, Table 5): 512 µg/mL | MIC (CA-MRSA strain ST30; [5]): 512 µg/mL | FIC ([1]; ECG+Kur+Fus): 0.008 | MIC combine ([1]; ECG+Kur+Fus): 0.25 µg/mL | FIC ([1]; ECG+Kur, no Fus): 0.016 | MIC combine ([1]; ECG+Kur, no Fus): 8 µg/mL | MIC [1, 5]: 512 µg/mL | FIC ([2]; ECG+Kur+Fus): 0.004 | MIC combine ([2]; ECG+Kur+Fus): 0.25 µg/mL | FIC ([2]; ECG+Kur, no Fus): 0.003 | MIC combine ([2]; ECG+Kur, no Fus): 16 µg/mL | MIC [2, 5]: 512 µg/mL | FIC ([3]; ECG+Kur+Fus): 0.002 | MIC combine ([3]; ECG+Kur+Fus): 0.25 µg/mL | FIC ([3]; ECG+Kur, no Fus): 0.003 | MIC combine ([3]; ECG+Kur, no Fus): 16 µg/mL | MIC [3, 5]: 512 µg/mL | MIC ([4]; ATCC25293 / ATCC25923, read-out: MIC alone): 512 µg/mL | MIC90 ([4]; ATCC25923): 128 µg/mL | MIC99 ([4]; ATCC25923, read-out: MIC 99.9): > 512 µg/mL | MIC (CA MRSA W44; [5]): 512 µg/mL | FIC (CA MRSA W44; W44, ECG with Kur): 0.004 | MIC combine (CA MRSA W44; W44, ECG with Kur): 2 µg/mL | FIC (CA MRSA W44; W44, ECG+Kur+Van): 0.0004 | MIC combine (CA MRSA W44; W44, ECG+Kur+Van): 0.25 µg/mL | MIC alone (CA MRSA W44; W44, Table 5): 512 µg/mL | MIC (CA MRSA W45; [5]): 512 µg/mL | FIC (CA MRSA W45; W45, ECG with Kur): 0.002 | MIC combine (CA MRSA W45; W45, ECG with Kur): 1 µg/mL | FIC (CA MRSA W45; W45, ECG+Kur+Van): 0.0004 | MIC combine (CA MRSA W45; W45, ECG+Kur+Van): 0.25 µg/mL | MIC alone (CA MRSA W45; W45, Table 5): 512 µg/mL | MIC (CA MRSA W46; [5]): 512 µg/mL | FIC (CA MRSA W46; W46, ECG with Kur): 0.015 | MIC combine (CA MRSA W46; W46, ECG with Kur): 8 µg/mL | FIC (CA MRSA W46; W46, ECG+Kur+Van): 0.002 | MIC combine (CA MRSA W46; W46, ECG+Kur+Van): 1 µg/mL | MIC alone (CA MRSA W46; W46, Table 5): 512 µg/mL | MIC (CA MRSA W47; [5]): 512 µg/mL | FIC (CA MRSA W47; W47, ECG with Kur): 0.004 | MIC combine (CA MRSA W47; W47, ECG with Kur): 2 µg/mL | FIC (CA MRSA W47; W47, ECG+Kur+Van): 0.0004 | MIC combine (CA MRSA W47; W47, ECG+Kur+Van): 0.25 µg/mL | MIC alone (CA MRSA W47; W47, Table 5): 512 µg/mL | MIC (CA MRSA W48; [5]): 512 µg/mL | FIC (CA MRSA W48; W48, ECG with Kur): 0.002 | MIC combine (CA MRSA W48; W48, ECG with Kur): 1 µg/mL | FIC (CA MRSA W48; W48, ECG+Kur+Van): 0.002 | MIC combine (CA MRSA W48; W48, ECG+Kur+Van): 1 µg/mL | MIC alone (CA MRSA W48; W48, Table 5): 512 µg/mL | MIC (CA MRSA W103; [5]): 512 µg/mL | FIC (CA MRSA W103; W103, ECG with Kur): 0.002 | MIC combine (CA MRSA W103; W103, ECG with Kur): 1 µg/mL | MIC (CA MRSA W106; [5]): 512 µg/mL | FIC (CA MRSA W106; W106, ECG with Kur): 0.002 | MIC combine (CA MRSA W106; W106, ECG with Kur): 1 µg/mL | MIC (CA MRSA W113; [5]): 512 µg/mL | FIC (CA MRSA W113; W113, ECG with Kur): 0.002 | MIC combine (CA MRSA W113; W113, ECG with Kur): 1 µg/mL | MIC (HA MRSA W231; [5]): 512 µg/mL | MIC alone (HA MRSA W231; W231 (gentamicin resistant)): 512 µg/mL | FIC (HA MRSA W231; W231, ECG with Kur): 0.016 | MIC combine (HA MRSA W231; W231, ECG with Kur): 8 µg/mL | FIC (HA MRSA W231; W231, ECG+Kur+Gen): 0.0004 | MIC combine (HA MRSA W231; W231, ECG+Kur+Gen): 0.25 µg/mL | FIC (HA MRSA W231; W231, ECG+Kur, no Gen): 0.008 | MIC combine (HA MRSA W231; W231, ECG+Kur, no Gen): 4 µg/mL | MIC alone (HA MRSA W231; W231, Table 5): 512 µg/mL | MIC (HA MRSA W233; [5]): 512 µg/mL | MIC alone (HA MRSA W233; W233 (gentamicin resistant)): 512 µg/mL | FIC (HA MRSA W233; W233, ECG with Kur): 0.004 | MIC combine (HA MRSA W233; W233, ECG with Kur): 2 µg/mL | FIC (HA MRSA W233; W233, ECG+Kur+Gen): 0.0005 | MIC combine (HA MRSA W233; W233, ECG+Kur+Gen): 0.25 µg/mL | FIC (HA MRSA W233; W233, ECG+Kur+Van): 0.03 | MIC combine (HA MRSA W233; W233, ECG+Kur+Van): 8 µg/mL | FIC (HA MRSA W233; W233, ECG+Kur, no Gen): 0.03 | MIC combine (HA MRSA W233; W233, ECG+Kur, no Gen): 16 µg/mL | MIC alone (HA MRSA W233; W233, Table 5): 512 µg/mL | MIC (HA MRSA W235; [5]): 512 µg/mL | FIC (HA MRSA W235; W235, ECG with Kur): 0.002 | MIC combine (HA MRSA W235; W235, ECG with Kur): 1 µg/mL | MIC (HA MRSA W238; [5]): 512 µg/mL | MIC alone (HA MRSA W238; W238 (gentamicin resistant)): 512 µg/mL | FIC (HA MRSA W238; W238, ECG with Kur): 0.002 | MIC combine (HA MRSA W238; W238, ECG with Kur): 1 µg/mL | FIC (HA MRSA W238; W238, ECG+Kur+Gen): 0.0004 | MIC combine (HA MRSA W238; W238, ECG+Kur+Gen): 0.25 µg/mL | FIC (HA MRSA W238; W238, ECG+Kur+Van): 0.0004 | MIC combine (HA MRSA W238; W238, ECG+Kur+Van): 0.25 µg/mL | FIC (HA MRSA W238; W238, ECG+Kur, no Gen): 0.0004 | MIC combine (HA MRSA W238; W238, ECG+Kur, no Gen): 0.5 µg/mL | MIC alone (HA MRSA W238; W238, Table 5): 512 µg/mL | MIC (HA MRSA W239; [5]): 512 µg/mL | FIC (HA MRSA W239; W239, ECG with Kur): 0.002 | MIC combine (HA MRSA W239; W239, ECG with Kur): 1 µg/mL | FIC (HA MRSA W239; W239, ECG+Kur+Van): 0.0009 | MIC combine (HA MRSA W239; W239, ECG+Kur+Van): 0.5 µg/mL | MIC alone (HA MRSA W239; W239, Table 5): 512 µg/mL | MIC (HA MRSA W240; [5]): 512 µg/mL | FIC (HA MRSA W240; W240, ECG with Kur): 0.008 | MIC combine (HA MRSA W240; W240, ECG with Kur): 4 µg/mL
